Earlier results, collected in patent publication US20040037903A1, “Phytonutrient formula for the relief of chronic pain resulting from inflammation” (priority 2003, published 2004).

Tests used:
[1] = tested on: IL-8; conditions: human cell lines
[2] = tested on: 5-HETE; conditions: in vivo in rats, curcumin added to the diet
[3] = tested on: PGE2; conditions: in vivo in rats, curcumin added to the diet
[4] = tested on: TNF-α; conditions: human cell lines
[5] = tested on: IL-1B; conditions: human cell lines
[6] = animal study, similar active dose
[7] = tested on: 5-HETE; conditions: rat polymorphonuclear leukocytes
[8] = tested on: IL-6; conditions: incubation of mouse macrophages with resveratrol

## COc1cc(/C=C/C(=O)CC(=O)/C=C/c2ccc(O)c(OC)c2)ccc1O [curcumin, diferuloyl methane]
[1]
  inhibition of cytokine IL-8: at least 50%
[2]
  reduction of 5-HETE: 80%
[3]
  reduction of PGE2: 38%
[4]
  inhibition of cytokine TNF-α: at least 50%
[5]
  inhibition of cytokine IL-1B: at least 50%

## CCCCC1C(=O)N(c2ccccc2)N(c2ccccc2)C1=O [phenylbutazone]
[6]
  ulcerogen index: 1.7

## Oc1ccc(/C=C/c2cc(O)cc(O)c2)cc1 [resveratrol, 3,5,4′-trihydroxy-trans-stilbene]
[7]
  inhibition of 5-HETE: greater than 70%
[8]
  inhibition of the production of IL-6: 34%
